Data set [1] can be described thus: ABTS radical scavenging assay. The format is biochemical. The following applies: for IC50: 30 min incubation, EtOH, absorbance at 734 nm; for ABTS-TEAC100: Trolox Equivalent Antioxidant Capacity vs 100 µM solution of the substance, from ABTS assay. The procedure:
ABTS^+ radical was produced by reacting 2,2′-azino-bis-3-ethylbenzthiazoline-6-sulphonic acid (ABTS) 7 mM with K2S2O8 2.45 mM, both reactants dissolved in water, and at the volume ratio of 1:1. The mixture was stored in the dark at room temperature for 16 h. The ABTS^+ solution was diluted to give an absorbance of 0.750 ± 0.025 at 734 nm in EtOH. All the compounds tested were dissolved in EtOH. 150 µL of each compound solution was added to the wells of the 96-well plate, followed by the addition of 50 µL of the ABTS^+ radical solution. Final compound concentrations tested were 0, 5, 10, 20, 50, 100, 150, 200 µM. The absorbance change at 734 nm was recorded after 30 min incubation in the dark, and the percentage of radical scavenging was calculated for each concentration relative to a blank containing no scavenger. The degree of decolorization was calculated as the percentage reduction of absorbance. The ABTS^+ radical scavenging activity was calculated as follows: Percentage ABTS^+ radical scavenging activity = {1 − [As/Ac]} × 100(1) where As is the absorbance of the ABTS^+ radical solution containing samples and Ac the absorbance of the control solution without antioxidant. The percentages of ABTS^+ radical reduced were plotted against compound concentration. Trolox was used as a reference antioxidant. All the assays were carried out three times by quadruplicate for each compound.

A short description of data set [2]: Cytotoxicity in SH-SY5Y cells (MTT). To be noted: human, SH-SY5Y neuronal cells, concentration reducing cell viability to 50% of control. The format is cell-based. The procedure:
So, to study the neuroprotectant potential of β-diketones in the SH-SY5Y cell line, we firstly need to determine their cytotoxicity in the same cellular model. […] In addition to that, within each series, the introduction of a second fluorine atom in the left-hand side phenyl ring decreases also the cytotoxicity.
SH-SY5Y cells were seeded into 96-well plates at a density of 5 × 10^3 cells/well and grown in the incubator for 24 h. All compounds tested were dissolved and eventually further diluted in dimethylsulfoxide (DMSO). After overnight incubation, the cells were treated with different test concentrations (5, 10, 20, 50, 100, 150, 200 µM) in a final volume of 200 µL with four replicates each. […] Cell proliferation or viability was measured using the 3-(4,5-dimethylthiazol-2-yl)-2,5-diphenyl tetrazolium bromide (MTT) assay. After 24 h, 20 µL of MTT (5 mg/mL) was added to each well and the plate was incubated at 37 °C in the dark for 2 h. Supernatants were removed and the formazan crystals were solubilized in DMSO (200 µL/well), under 10 min shaking at room temperature. The reduction of MTT was quantified by absorbance at 570 nm Varioskan microplate reader (Thermo Fisher Scientific, Vantaa, Finland). Effects of the test compounds on cell viability were calculated using cells treated with vehicle as control. The data were subjected to linear regression analysis and the regression lines were plotted for the best fit. The IC50 (inhibition of cell viability) concentrations were calculated using the respective dose-response curves.

Data set [3] is described as follows: DPPH radical scavenging assay. The following applies: antioxidant concentration that decreases initial DPPH^• concentration by 50%; 30 min, 517 nm. The format is biochemical. The procedure: The assay was performed in a 96-well microplate. A 0.2 mM solution of 2,2-diphenyl-1-picryl-hydrazyl-hydrate (DPPH) in ethanol was prepared. All the compounds tested were dissolved in EtOH. Firstly, 150 µL of each compound solution was added to the wells of the 96-well plate, followed by the addition of 50 µL of the DPPH solution. Final compound concentrations tested were 0, 5, 10, 20, 50, 100, 150, 200 µM. The change in absorbance at 517 nm was measured after 30 min incubation in the dark. The free radical scavenging activity was calculated as inhibition using the following Equation (2): Percentage DPPH radical scavenging activity = {1 − [As/Ac]} × 100(2) where As is the absorbance of the DPPH solution containing samples and Ac the absorbance of the control solution without antioxidant but with DPPH. The percentages of DPPH reduced were plotted against compound concentration. The experiment was also conducted using Trolox as reference antioxidant. Assays were performed three times by quadruplicate for each compound.
On the technique in general: The DPPH test is a chemical assay of radical scavenging.

A short description of data set [4]: FRAP (Ferric Reducing Antioxidant Power) assay. The format is biochemical. The following applies: for FRAP-TEAC100: Trolox Equivalent Antioxidant Capacity vs 100 µM solution of the substance, from FRAP assay; for FRAP Assay (%) at 100 µM / FRAP Assay (%) at 200 µM: 30 min, 593 nm. The procedure: The assay was carried out according to the method of Benzie et al. with slight modifications, in a 96-well microplate. FRAP reagent was prepared by mixing 10 mL of 300 mM acetate buffer with 1 mL of 10 mM 2,4,6-tripyridyl-S-triazine (TPTZ) in HCl 40 mM and 1mL of FeCl3·6H2O 20 mM. Firstly, 190 µL of the FRAP reagent were added to all wells of the 96-well plate, followed by the addition to the well of 10 µL of the test compounds dissolved in Ethanol to reach the final concentrations assayed (0, 5, 10, 20, 50, 100, 150, 200 µM). After 30 min incubation in the dark, the absorbance was read at 593 nm. Trolox was used as assay control. Three different assays were carried out by quadruplicate for each compound.

Data set [5] can be described thus: Iron chelation capacity (Fe^+2-ferrozine complex). The format is biochemical. The following applies: all experiments, both 50 and 200 µM. The procedure: To decrease the level of free Fe^2+ that can reduce H2O2 to the ^•OH radical and produce other ROS, it is worth to evaluate the iron chelation capacity of new potential AOX compounds as potential new therapeutic agents against neurodegenerative diseases. […] In this assay ferrozine form complexes with Fe^+2 in a quantitative manner, and in the presence of chelating compounds this complex is disrupted.
The iron chelation capacity was determined according to the method of Dinis et al., using ferrous chloride instead of ferrous sulfate. In this method, ferrozine can form complexes with a ferrous ion in a quantitative way yielding a red color with maximum absorbance at 562 nm. In the presence of other iron chelators, a decoloration is observed due to the competition with ferrozine for the metal. The assay was carried out in a 96 well plate. Serial dilutions of test compound (0, 5, 10, 25, 50, 100, 150, 200 µM) were dispensed (180 µL) into each well and then 10 µL of FeCl2 1 mM were added (final FeCl2 concentration, […]). After shaking the plate for 1 min, 10 µL of Ferrozine 2 mM were added. The mixture was shaken thoroughly and left to stand for 20 min at room temperature. The absorbance was measured at 562 nm with a Varioskan microplate reader. […] The compound iron chelation activity was calculated as the percentage of inhibition of the Fe^+2-Ferrozine complex by the formula in Equation (3):%Inhibition = {(Ao − As)/Ao} × 100(3) where Ao is the absorbance of the control, and As is the absorbance in the presence of the test compound. EDTA was used as a positive control. All the experiments were performed three times by quadruplicate for each compound concentration.

Some results are limits rather than exact numbers.

`COc1cc(/C=C/C(O)=C/C(=O)C(F)(F)F)ccc1O` [Compound 1b, (3Z,5E)-1,1,1-trifluoro-4-hydroxy-6-(4-hydroxy-3-methoxyphenyl)hexa-3,5-dien-2-one]: in data set [1], the IC50 was 34.6 ± 2.7 µM and the ABTS-TEAC100 is 0.73. The compound further gave an IC50 at 24 h in data set [2] of 102 ± 5.6 µM. The IC50 in data set [3] was determined as 53.8 ± 2.6 µM. In data set [4], the FRAP-TEAC100 came out at 0.64, the “FRAP Assay (%) at 100 µM” value is given as 36.6% and the “FRAP Assay (%) at 200 µM” value was determined as 61.4%.

On to `COc1cc(/C=C/C(O)=C/C(=O)c2ccccc2)ccc1F` [Compound 2a, (2Z,4E)-5-(4-fluoro-3-methoxyphenyl)-3-hydroxy-1-phenylpenta-2,4-dien-1-one], for which, in data set [1], the IC50 was above 600 µM and the ABTS-TEAC100 was determined as 0.21. In data set [2], this compound came in with an IC50 at 24 h of 75.7 ± 5.4 µM. Besides, in data set [4], the FRAP-TEAC100 is reported as 0.00, the “FRAP Assay (%) at 100 µM” value came out at 0.1% and the “FRAP Assay (%) at 200 µM” value is listed as 0.7%.

For the compound `COc1cc(/C=C/C(O)=C/C(=O)C(F)(F)F)ccc1F` [Compound 2b, (3Z,5E)-1,1,1-trifluoro-6-(4-fluoro-3-methoxyphenyl)-4-hydroxyhexa-3,5-dien-2-one], in data set [1], the IC50 is above 600 µM and the ABTS-TEAC100 was determined as 0.23. Besides, the IC50 at 24 h in data set [2] is 88 ± 4.5 µM. In data set [4], the FRAP-TEAC100 was 0.03, the “FRAP Assay (%) at 100 µM” value came out at 1.9% and the “FRAP Assay (%) at 200 µM” value is recorded as 3.1%.

As to `O=C(/C=C(O)/C=C/c1ccc(O)c(F)c1)c1ccccc1` [Compound 3a, (2Z,4E)-5-(3-fluoro-4-hydroxyphenyl)-3-hydroxy-1-phenylpenta-2,4-dien-1-one], in data set [1], the IC50 turned out to be 60.2 ± 2.2 µM and the ABTS-TEAC100 is reported as 0.51. For the same compound, the IC50 at 24 h in data set [2] is 98.1 ± 8.3 µM. Further, in data set [4], the FRAP-TEAC100 came out at 0.33, the “FRAP Assay (%) at 100 µM” value is reported as 20.5% and the “FRAP Assay (%) at 200 µM” value was determined as 31.0%.

For the compound `O=C(/C=C(O)/C=C/c1ccc(O)c(F)c1)C(F)(F)F` [Compound 3b, (3Z,5E)-1,1,1-trifluoro-6-(3-fluoro-4-hydroxyphenyl)-4-hydroxyhexa-3,5-dien-2-one], in data set [1], half-maximal inhibition (IC50) was put at 113 ± 12.4 µM and the ABTS-TEAC100 came to 0.67. Besides, the midpoint of inhibition in data set [2], the IC50 at 24 h, lay at 109 ± 7.6 µM. Moreover, in data set [4], the FRAP-TEAC100 is on record as 0.34, the “FRAP Assay (%) at 100 µM” value stood at 19.7% and the “FRAP Assay (%) at 200 µM” value is listed as 32.6%.

Regarding `O=C(/C=C(O)/C=C/c1ccc(O)cc1F)c1ccccc1` [Compound 4a, (2Z,4E)-5-(2-fluoro-4-hydroxyphenyl)-3-hydroxy-1-phenylpenta-2,4-dien-1-one], in data set [1], inhibition was half-maximal at 108 ± 7.6 µM (IC50) and the ABTS-TEAC100 turned out to be 0.40. Also, half-maximal inhibition in data set [2] (IC50 at 24 h) required 104 ± 7.1 µM. Further, in data set [4], the FRAP-TEAC100 is on record as 0.15, the “FRAP Assay (%) at 100 µM” value was found to be 9.8% and the “FRAP Assay (%) at 200 µM” value turned out to be 14.3%.

With `O=C(/C=C(O)/C=C/c1ccc(O)cc1F)C(F)(F)F` [Compound 4b, (3Z,5E)-1,1,1-trifluoro-6-(2-fluoro-4-hydroxyphenyl)-4-hydroxy-hexa-3,5-dien-2-one], in data set [1], half-maximal inhibition (IC50) was put at 216 ± 39.5 µM and the ABTS-TEAC100 was 0.52. In addition, the IC50 at 24 h in data set [2] was found to be 138 ± 6.5 µM. In addition, in data set [4], the FRAP-TEAC100 is 0.09, the “FRAP Assay (%) at 100 µM” value worked out at 4.8% and the “FRAP Assay (%) at 200 µM” value was 8.5%.

Regarding `O=C(/C=C(O)/C=C/c1ccc(F)c(O)c1F)c1ccccc1` [Compound 5a, (2Z,4E)-5-(2,4-difluoro-3-hydroxyphenyl)-3-hydroxy-1-phenylpenta-2,4-dien-1-one], in data set [1], the IC50 came out at 275 ± 35.3 µM and the ABTS-TEAC100 worked out at 0.23. In data set [2], this compound had an IC50 at 24 h of 119 ± 8.5 µM. Further, in data set [4], the FRAP-TEAC100 is 0.05, the “FRAP Assay (%) at 100 µM” value is on record as 3.4% and the “FRAP Assay (%) at 200 µM” value worked out at 5.3%.

As to `O=C(/C=C(O)/C=C/c1ccc(F)c(O)c1F)C(F)(F)F` [Compound 5b, (3Z,5E)-6-(2,4-difluoro-3-hydroxyphenyl)-1,1,1-trifluoro-4-hydroxyhexa-3,5-dien-2-one], in data set [1], the IC50 amounted to 518 ± 94.6 µM and the ABTS-TEAC100 was determined as 0.32. In addition, the IC50 at 24 h in data set [2] is 153 ± 21 µM. In data set [4], the FRAP-TEAC100 came out at 0.05, the “FRAP Assay (%) at 100 µM” value is 3.0% and the “FRAP Assay (%) at 200 µM” value came out at 4.7%.

Consider `O=C(/C=C(O)/C=C/c1cc(F)c(O)cc1F)c1ccccc1` [Compound 6a, (2Z,4E)-5-(2,5-difluoro-4-hydroxyphenyl)-3-hydroxy-1-phenylpenta-2,4-dien-1-one], for which, in data set [1], the IC50 was found to be 67.2 ± 2.7 µM and the ABTS-TEAC100 is 0.51. Moreover, in data set [2], inhibition was half-maximal at 134 ± 6.6 µM (IC50 at 24 h). Moreover, in data set [4], the FRAP-TEAC100 is 0.25, the “FRAP Assay (%) at 100 µM” value is given as 15.5% and the “FRAP Assay (%) at 200 µM” value worked out at 25.2%.

Take `O=C(O)CN(CCN(CC(=O)O)CC(=O)O)CC(=O)O` [EDTA, reference compound]: the “Inhibition of the Fe^+2-Ferrozine complex” value in data set [5] is recorded as “completely inhibits”.

Turning to `Cc1c(C)c2c(c(C)c1O)CCC(C)(C(=O)O)O2` (centres unmarked) [Trolox, reference compound], in data set [1], the IC50 was found to be 34 ± 2.3 µM and the ABTS-TEAC100 came out at 1. In data set [3], this compound had an IC50 of 19 ± 1.8 µM. Also, in data set [4], the FRAP-TEAC100 stood at 1, the “FRAP Assay (%) at 100 µM” value came out at 53.0% and the “FRAP Assay (%) at 200 µM” value amounted to 100.0%.

The IC50 is the concentration that gives 50% inhibition. Low readings indicate higher potency, high ones lower potency.

For the origin of these results see publication PMC6222706, “Evaluation of the Antioxidant and Neuroprotectant Activities of New Asymmetrical 1,3-Diketones” (Molecules : A Journal of Synthetic Chemistry and Natural …, 2018).
